Assay results published in US12612622B2, “Targeted mutagenesis using base editors” (Qi Biodesign Biotechnology Company Limited, priority 2018, dated 2026).

Test system: OsACCase gene
Assay: Base editing (pZRH-PBE + individual sgRNAs) of OsACCase functional domain in transgenic M0 rice plants
Type: in vivo
Details: for Frequency of indel (%) / Frequency of substitution (%) / No. of WT / No. of indel / No. of substitution: transgenic M0 plants; for No. of WT / No. of indel / No. of substitution: per sgRNA target
From the text: For individual cloning, the following method is used. APOBEC1, partial nCas9 and UGI sequences (SEQ ID NO: 129) without BsaI were synthesized commercially (GenScript, Nanjing, China) and cloned into the pUC57 (SEQ ID NO: 130) as intermediate vector. […] The full length APOBEC1-nCas9-UGI was excised using XmaJI and SacI, then was subcloned into pHUE411 that had been digested using the same two enzymes. The resultant vector pZRH-PBE (SEQ ID NO: 133) was used to construct sgRNA expression plasmids using restriction enzyme site BsaI.

[1] = edited allele with the substitution of the same table line

| Substance | Frequency of indel (%) | Frequency of substitution (%) | No. of WT | No. of indel | No. of substitution | No. of alleles (unedited target site sequence) | No. of alleles [1] |
| --- | --- | --- | --- | --- | --- | --- | --- |
| R2: sgRNA in pZRH-PBE; OsACCase target site CCGGTGCATACAGCGTCTTGACC (SEQ ID NO: 8) (expressed or natural sequence; target site or template, no part of the molecule) | 0 | 80 | 5 | 0 | 20 | 6 |  |
| R4: sgRNA in pZRH-PBE; OsACCase target site TCTGCACTGAACAAGCTTCTTGG (SEQ ID NO: 11) (expressed or natural sequence; target site or template, no part of the molecule) | 3.1 | 31.3 | 24 | 2 | 6 | 6 |  |
| R5: sgRNA in pZRH-PBE; OsACCase target site CCACATGCAGTTGGGTGGTCCCA (SEQ ID NO: 15) (expressed or natural sequence; target site or template, no part of the molecule) | 0.0 | 65.4 | 18 | 0 | 34 | 12 |  |
| R6: sgRNA in pZRH-PBE; OsACCase target site CCATCTTACTGTTTCAGATGACC (SEQ ID NO: 22) (expressed or natural sequence; target site or template, no part of the molecule) | 14.3 | 19 | 14 | 3 | 4 | 2 |  |
| R7: sgRNA in pZRH-PBE; OsACCase target site CCCTGCTGACCCTGGTCAGCTTG (SEQ ID NO: 27) (expressed or natural sequence; target site or template, no part of the molecule) | 5.9 | 58.8 | 6 | 1 | 10 | 4 | 1 |
| R8: sgRNA in pZRH-PBE; OsACCase target site TTCCTCGTGCTGGACAAGTGTGG (SEQ ID NO: 32) (expressed or natural sequence; target site or template, no part of the molecule) | 10.5 | 59.6 | 17 | 6 | 34 | 9 |  |
| R17: sgRNA in pZRH-PBE; OsACCase target site GGAGCTTATCTTGCTCGACTTGG (SEQ ID NO: 64) (expressed or natural sequence; target site or template, no part of the molecule) | 4.8 | 42.9 | 22 | 2 | 18 | 16 |  |
| R18: sgRNA in pZRH-PBE; OsACCase target site CCGCAAGGGTTAATTGAGATCAA (SEQ ID NO: 68) (expressed or natural sequence; target site or template, no part of the molecule) | 13.0 | 60.9 | 6 | 3 | 14 | 7 |  |
| R19: sgRNA in pZRH-PBE; OsACCase target site TGCTTATTCTAGGGCATATAAGG (SEQ ID NO: 71) (expressed or natural sequence; target site or template, no part of the molecule) | 0.0 | 6.9 | 27 | 0 | 2 | 1 | 1 |
